Measurements reported in PubChem BioAssay (NCI).
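Where inhibition never reached the appropriate level, the endpoint shown equals the highest concentration tested. Otherwise, values were interpolated linearly from a five-concentration, 48-hour dose response in 96-well plates. TGI denotes the concentration required for complete inhibition of growth.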

How the values were obtained:
Test in all cases: DTP human tumour cell line panel, 48 h
OVCAR-3 ovarian = system: OVCAR-3 ovarian
KM12 colon = system: KM12 colon
SW-620 colon = system: SW-620 colon
NCI-H23 lung = system: NCI-H23 lung
COLO 205 colon = system: COLO 205 colon
HOP-62 NSCLC = system: HOP-62 NSCLC
SNB-19 CNS = system: SNB-19 CNS
TK-10 renal = system: TK-10 renal
ACHN renal = system: ACHN renal
HCT-15 colon = system: HCT-15 colon
SF-539 CNS = system: SF-539 CNS
OVCAR-4 ovarian = system: OVCAR-4 ovarian
EKVX NSCLC = system: EKVX NSCLC
CAKI-1 renal = system: CAKI-1 renal
RXF 393 renal = system: RXF 393 renal
HS 578T breast = system: HS 578T breast
MDA-N = system: MDA-N
NCI/ADR-RES ovarian = system: NCI/ADR-RES ovarian
MDA-MB-231 breast = system: MDA-MB-231 breast
T-47D breast = system: T-47D breast

Row | Compound | TGI (OVCAR-3 ovarian) [µM] | TGI (KM12 colon) [µM] | TGI (SW-620 colon) [µM] | TGI (NCI-H23 lung) [µM] | TGI (COLO 205 colon) [µM] | TGI (HOP-62 NSCLC) [µM] | TGI (SNB-19 CNS) [µM] | TGI (TK-10 renal) [µM] | TGI (ACHN renal) [µM] | TGI (HCT-15 colon) [µM] | TGI (SF-539 CNS) [µM] | TGI (OVCAR-4 ovarian) [µM] | TGI (EKVX NSCLC) [µM] | TGI (CAKI-1 renal) [µM] | TGI (RXF 393 renal) [µM] | TGI (HS 578T breast) [µM] | TGI (MDA-N) [µM] | TGI (NCI/ADR-RES ovarian) [µM] | TGI (MDA-MB-231 breast) [µM] | TGI (T-47D breast) [µM]
1 | CC(C)N1CN(C(C(=O)N[C@@H]2C(=O)N3C2SC(C)(C)C3C(=O)O)c2ccc(O)cc2)CSC1=S (some centres undefined) | > 100 | > 100 | 36.9 | > 100 | > 100 | > 100 | > 100 | > 100 | > 100 | > 100 | > 100 | > 100 | > 100 | > 100 | – | – | – | – | – | –
2 | COc1ccc2[nH]cc(CCNC(=O)[C@](O)(Cc3cn(C)c4ccccc34)[C@@]3(O)OCC(O)C3O)c2c1 (some centres undefined) | > 100 | > 100 | > 100 | > 100 | > 100 | > 100 | > 100 | > 100 | > 100 | > 100 | > 100 | > 100 | > 100 | > 100 | > 100 | – | – | – | – | –
3 | CC(=O)c1cccc(NC(=O)C(=O)Nn2c(N)nnc2N)c1 | – | > 100 | > 100 | > 100 | > 100 | > 100 | > 100 | > 100 | > 100 | > 100 | > 100 | > 100 | > 100 | > 100 | > 100 | – | – | – | – | –
4 | COc1c(C)cc2c(c1O)C1NC(C2)[C@H](O)N2C3COC(=O)[C@@]4(CS[C@@H](c5c(OC(C)=O)c(C)c6c(c53)OCO6)C12)NCCC1=C4NC2C=CC=CC12 (some centres undefined) | < 0.01 | – | < 0.01 | < 0.01 | – | < 0.01 | – | 1.31 | 0.0148 | 0.113 | – | – | 0.0306 | – | < 0.01 | – | – | – | – | –
5 | CCOP(=O)(OCC)C(C(=O)OC)C(=O)C(=O)Nc1c(C)cc(Br)cc1C (centres undefined) | > 100 | > 100 | > 100 | > 100 | > 100 | > 100 | > 100 | > 100 | > 100 | > 100 | > 100 | > 100 | > 100 | > 100 | > 100 | – | – | – | – | –
6 | COC(=O)CSC(=S)Nc1nnc(NC(=S)SCOC(C)=O)n1C(=S)SCC(=O)OC | > 100 | > 100 | > 100 | > 100 | > 100 | 37.5 | > 100 | – | > 100 | > 100 | – | > 100 | > 100 | > 100 | > 100 | > 100 | > 100 | > 100 | – | –
7 | NCCC(=O)N[C@@H](Cc1cc(O)c(O)c(SCC(NC(=O)CC[C@H](N)C(=O)O)C(=O)NCC(=O)O)c1)C(=O)O (some centres undefined) | > 50 | > 50 | > 50 | > 50 | > 50 | > 50 | > 50 | > 50 | > 50 | > 50 | – | > 50 | > 50 | > 50 | > 50 | – | > 50 | > 50 | > 50 | –
8 | CC(C)SC(NC(=O)C1C(C)(C)CCC1(C)C)C(=O)O (centres undefined) | – | – | > 100 | > 100 | > 100 | > 100 | > 100 | > 100 | > 100 | > 100 | > 100 | – | > 100 | – | – | > 100 | > 100 | > 100 | > 100 | –
9 | Cc1cc(-c2nc3ccc(F)cc3s2)ccc1N | > 100 | > 100 | > 100 | > 100 | > 100 | > 100 | > 100 | > 100 | > 100 | > 100 | > 100 | – | > 100 | > 100 | > 100 | > 100 | > 100 | > 100 | > 100 | –
10 | CN(CC(=O)O)c1ncc2c(n1)-c1ccccc1OC2 | – | > 100 | > 100 | > 100 | > 100 | – | > 100 | > 100 | > 100 | > 100 | > 100 | > 100 | > 100 | > 100 | > 100 | > 100 | > 100 | > 100 | > 100 | –
11 | CC(=O)O[C@H]1C(=O)[C@@]2(C)[C@H]([C@H](OC(=O)c3ccccc3)[C@]3(O)C[C@H](OC(=O)[C@H](O)[C@@H](NC(=O)C(C)(C)C)c4ccccc4)C(C)=C1C3(C)C)[C@]1(OC(C)=O)CO[C@@H]1C[C@@H]2O | – | > 10 | > 10 | > 10 | 0.251 | > 10 | > 10 | > 10 | > 10 | > 10 | 0.413 | > 10 | > 10 | > 10 | 2.64 | 0.389 | – | > 10 | > 10 | > 10
12 | CN(C)Cc1cc(C=O)cc(CN(C)C)c1O | > 100 | > 100 | > 100 | 67.4 | > 100 | > 100 | > 100 | > 100 | > 100 | > 100 | > 100 | > 100 | > 100 | – | > 100 | > 100 | > 100 | > 100 | > 100 | –
13 | CN1Cc2cc3c(cc2-c2ccccc21)OCO3 | > 100 | > 100 | > 100 | > 100 | > 100 | – | > 100 | > 100 | > 100 | – | > 100 | > 100 | > 100 | – | > 100 | – | – | – | – | –
14 | Cc1nc(C(N)=S)sc1C(=O)CC(=O)C(=O)Nc1nc2ccccc2[nH]1 | > 100 | > 100 | > 100 | > 100 | – | > 100 | – | > 100 | > 100 | > 100 | > 100 | > 100 | > 100 | > 100 | > 100 | > 100 | – | > 100 | > 100 | > 100
